The conditions of series [1]: Crystal; DTA.
Series [2] can be described thus: Molar enthalpy of transition or fusion. The conditions noted are these: Crystal; DSC.

From the NIST ThermoML archive (doi:10.1021/je900034d) come the findings set out here.

± gives the expanded uncertainty stated by the source.

Consider `c1cnc2c(c1)ccc1ncccc12` [1,5-diazaphenanthrene], for which the Normal melting temperature in series [1] came to 77.2 ± 0.5 °C. For the same compound, the “Molar enthalpy of transition or fusion” value in series [2] is 4.35 ± 0.167 kcal/mol.

For `c1ccc(-c2ccncc2)nc1` [2,4'-bipyridine], the Normal melting temperature in series [1] was found to be 59.7 ± 0.5 °C. For the same compound, in series [2], the “Molar enthalpy of transition or fusion” value came out at 4.16 ± 0.215 kcal/mol.

As for `c1cnc2ccc3ncccc3c2c1` [4,7-phenanthroline], in series [1], the Normal melting temperature was found to be 172.4 ± 0.5 °C. Moreover, the “Molar enthalpy of transition or fusion” value in series [2] is 5.21 ± 0.263 kcal/mol.

As to `c1ccc(-c2ccncn2)cc1` [4-phenylpyrimidine], the Normal melting temperature in series [1] came to 61.0 ± 0.5 °C. Besides, the “Molar enthalpy of transition or fusion” value in series [2] came out at 4.49 ± 0.167 kcal/mol.

`c1cc(-c2ccncc2)ccn1` [γ,γ'-bipyridyl]: the Normal melting temperature in series [1] turned out to be 104.4 ± 0.5 °C. For the same compound, the “Molar enthalpy of transition or fusion” value in series [2] amounted to 3.85 ± 0.478 kcal/mol.
